Where two headings read alike, the source gives them in different places.
Legend:
S. aureus = S. aureus growth inhibition assay; type: cell-based, Staphylococcus aureus; details: S. aureus growth inhibition
Mycobacterium smegmatis = experiment: M. smegmatis growth inhibition assay; type: cell-based
B. anthracis Sterne = type: cell-based, Bacillus anthracis; details: B. anthracis Sterne growth inhibition
B. subtilis = B. subtilis growth inhibition assay; type: cell-based, Bacillus subtilis

Compound	Sa ED50 (S. aureus) [µg/mL]	Sa ED50 (S. aureus; value in parentheses) [µM]	Ms ED50 (Mycobacterium smegmatis; 48 hours) [µg/mL]	Ms ED50 (Mycobacterium smegmatis; value in parentheses) [µM]	Ba ED50 (B. anthracis Sterne) [µg/mL]	Ba ED50 (B. anthracis Sterne; value in parentheses) [µM]	Bs ED50 (B. subtilis; 12 hours)	Bs ED50 (B. subtilis; value in parentheses) [µM]
CC(C)CCCC(C)CCCC(C)CCOc1ccc[n+](CC(P(=O)([O-])O)P(=O)(O)O)c1 (stereo not shown) [Compound 90, Hydrogen(1-phosphono-2-(3-((3,7,11-trimethyldodecyl)oxy)pyridin-1-ium-1-yl)ethyl) phosphonate]	22	45	91	180	5.0	10	36 µg/mL	73
CC(C)CCCC(C)CCc1ccc[n+](CC(P(=O)([O-])O)P(=O)(O)O)c1 (stereo not shown) [Compound 102, Hydrogen (2-(3-(3,7-dimethyloctyl)pyridin-1-ium-1-yl)-1-phosphonoethyl) phosphonate]	–	–	–	–	–	–	1.9 µg/mL	–
CC(C)CCCC(C)CCc1cnc(NCC(P(=O)(O)O)P(=O)(O)O)s1 (stereo not shown) [Compound 88, (2-((5-(3,7-Dimethyloctyl)thiazol-2-yl)amino)ethane-1,1-diyl)bis(phosphonic acid)]	36	84	150	350	7.4	17	21 µg/mL	49
CC(C)=CCC/C(C)=C/Cc1ccc[n+](CC(P(=O)([O-])O)P(=O)(O)O)c1 (stereo not shown) [Compound 103, 3-[(2E)-3,7-dimethylocta-2,6-dien-1-yl]-1-(2-hydrogenphosphonato-2-phosphonoethyl)pyridin-1-ium]	–	–	–	–	–	–	~ 9.2 μg/mL	–
CC(C)CCCC(C)CCc1csc(NCC(P(=O)(O)O)P(=O)(O)O)n1 (stereo not shown) [Compound 86, (2-((4-(3,7-Dimethyloctyl)thiazol-2-yl)amino)ethane-1,1-diyl)bis(phosphonic acid)]	23	54	150	350	5.0	12	8.3 µg/mL	19
CC(C)CCCC(C)CCCC(C)CCCC(C)CCOc1ccc[n+](CC(P(=O)([O-])O)P(=O)(O)O)c1 (stereo not shown) [Compound 97, Hydrogen(1-phosphono-2-(3-((3,7,11,15-tetramethylhexadecyl)oxy)pyridin-1-ium-1-yl)ethyl)phosphonate]	25	44	210	370	7.7	14	260 µg/mL	460
O=P(O)(O)C(CNc1nccs1)P(=O)(O)O [Compound 93]	230	800	290	1000	2.3	8.0	97 µg/mL	340
CC(C)CCCC(C)c1cnc(NCC(P(=O)(O)O)P(=O)(O)O)s1 (stereo not shown) [Compound 94, (2-((5-(6-Methylheptan-2-yl)thiazol-2-yl)amino)ethane-1,1-diyl)bis(phosphonic acid)]	56	140	96	240	11	28	100 µg/mL	250
CC(C)CCOc1ccc[n+](CC(P(=O)([O-])O)P(=O)(O)O)c1 (stereo not shown) [Compound 91, Hydrogen (2-(3-(isopentyloxy)pyridin-1-ium-1-yl)-1-phosphonoethyl)phosphonate]	17	48	65	180	8.6	24	41 µg/mL	120
